Test results reported in patent US7687055B2, “Method of treating keratinic fibers with creatine, creatinine and/or their salts to strengthen, restructure, harden and stabilize them” (Wella AG, priority 2001, dated 2010).

Key:
[1] = Measurement of the repair effect: tensile elongation measurement, strand tensile strength of hair; conditions: 1 wt. % creatine in shampoo of Example 2 vs same shampoo without creatine (14.8 to 15.5 cN/tex); t-test significance level 99.9%
Procedure: Measurement of the Repair Effect
To determine the breaking force for hair, which is an indicator of the structural integrity of the hair cortex and is thus a measure of the degree of damage, common tensile elongation measurements were performed. From each hair strand, 20 individual hairs were selected and the individual hair diameters were measured with a computer-controlled laser micrometer. The force required to break the individual hairs was then determined with a tensile elongation tester (MTT 160/160 Series Miniature Tensile Tester, serial No. 600.95.05.001, DIA-STRON Ltd, England).
From these individual test results, which because of the differing hair diameters are different, the strand tensile strength (STS) was determined by calculating from the individual values the tensile strength for a hair diameter of 0.08 mm (mean diameter) taking into account the hair diameters. By taking into account the hair density, a conversion to the unit for strand tensile strength (cN/tex) was finally made. The higher the numerical value of the strand tensile strength, the lower is the hair damage.

[2] = Measurement of the improvement in combability: combing force on hair strands; conditions: 1 wt. % creatine in shampoo of Example 2 vs same shampoo without creatine (1.43 N to 1.21 N); t-test significance level 97.5%
Description: Measurement of the Improvement in Combability The combability of hair is also an important parameter for describing hair quality. Various external influences such as certain cosmetic treatments (bleaching, dyeing permanent waving), weathering and frequent combing and brushing cause a deterioration in hair combability which is attributable to damage to the cuticula. The principle of most methods for measuring combability consists of measuring the force (combing force) required to move a comb through a hair strand under exactly defined boundary conditions. Within the framework of our own study, an automated apparatus was used for this purpose. […] The strands were then repeatedly and automatically combed one after another at a constant rate of speed, and for each combing the combing force N (newton) was recorded as a function of the combing path (strand length). The reported combing force values were finally obtained by averaging the combing forces over the combing path. The lower the combing force, the better is the combability of the hair.

## CN(CC(=O)O)C(=N)N [creatine, M-amidinosarcosine]
[1]
  increase of strand tensile strength: 4.7%
[2]
  reduction of combing force (wet combability): 15.3%
